Source: a melting point compilation (Tetko et al.; mined from patent text by program, amines drawn as free bases though some values may be those of a salt)

melting point | Structure (SMILES)
168 °C | O=C(O)c1ccc2n1Cc1ccccc1N(C(=O)COc1ccc(Cl)cc1)C2
213 to 215 °C | O=C(c1ccc(Br)cc1)c1cc2c(ccc3ccccc32)oc1=O
100 to 101 °C | CCOC(CCN(C(=O)c1cccs1)c1nc(-c2cc(-c3ccccc3)no2)cs1)OCC
196 to 197 °C | Cc1c2cccc(-c3cccc(C(=O)NCCC#N)c3)c2nn1Cc1cccc(C(F)(F)F)c1
230 °C | COc1nc(N)nc(OC)c1C1=NCCN1
113 to 116 °C | O=C(Cl)c1ccccc1SCc1ccccc1
105 to 106 °C | NC(=O)CNC(=O)c1cccc(-c2cccc3oc(Cc4cccc(C(F)(F)F)c4)cc23)c1
198 to 199 °C | CC(CO)(CO)NCc1c2ccccc2cc2cc3ccccc3cc12
129 to 131 °C | O=C1c2c(-c3ccccc3)cc(CNC3CC3)nc2OCCN1Cc1cc(C(F)(F)F)cc(C(F)(F)F)c1
69 to 72 °C | CCNC(=O)c1occc1[Si](C)(C)C
150 to 151 °C | CCCCc1nc2c(N)nc3ccccc3c2n1CCCCCCCCNC(=O)c1ccccc1
232 to 234 °C | O=C(O)CCc1cc(-c2ccc(Cl)cc2)n(-c2nc3c(Cl)cccc3s2)n1
232 to 234 °C | CSC1=NC2=NC3=C(CN2N1)C(Cc1ccccc1)CNC3=O (stereo not drawn)
68 to 71 °C | COC(=O)C(Oc1ccccc1)c1ccc(I)cc1 (stereo not drawn)
103 to 104 °C | N[C@@H](CCC(=O)O)C(=O)N[C@@H](Cc1ccccc1)C(=O)OCc1ccccc1
155 to 157 °C | Cc1[nH]c(C(=O)N2CCCC2)c(C)c1-c1nc2ccc(C(=O)c3ccccc3)cc2[nH]1
94 to 96 °C | OCCc1nccn1CCCc1ccc(OCc2coc(/C=C/c3ccc(F)cc3F)n2)cc1
168 °C | CCOC(=O)C(=O)Nc1cccc(F)c1O
90 to 95 °C | CCc1c(C(=O)NCCCCCCC(=NOCCN)c2ccc(C(F)(F)F)cc2)nc(-c2ccccc2Cl)n1-c1ccc(Cl)cc1
99 to 102 °C | COC(=O)COc1cccc2c1cc(C)n2Cc1cccc(-c2ccccc2)c1
66 to 67 °C | O=Cc1ccc([N+](=O)[O-])cn1
104 to 108 °C | CCOC(=O)c1c(NC=CC(=O)C(C)C)sc(-c2ccccc2)c1C
151 to 152 °C | COc1ccc(-c2c(C(=O)c3ccccc3)c(C)nc3cc(OC)c(OC)cc23)cc1OC

melting point | Structure (SMILES)
137 to 138 °C | COc1cc(C(=O)C=Cc2cccnc2)cc(OC)c1OC
145 to 148 °C | CCOC(=O)C1C(=C=S)NCC1CCc1ccc(C(=O)O)cc1 (stereo not drawn)
97 to 98 °C | CC(=O)N1CCO[C@@H]2c3ccccc3OCC[C@H]21 (relative stereo)
175 to 179 °C | CCOC(=O)c1nc(-c2ccc(=O)n(CC)c2)c(-c2ccccc2)nc1N
188 to 191 °C | OC1c2cc(OCc3ccc4cc(F)ccc4n3)ccc2OCC1Cc1cncnc1 (stereo not drawn)
132 to 133 °C | Cc1ccc(C(=O)Nc2cn(C3CCCCO3)nc2C(=O)NCC(F)(F)F)cn1 (stereo not drawn)
146 to 149 °C | CCOC(=O)N(C)c1cccc(-c2ccc3nnc(C)n3n2)c1
74 to 76 °C | CC(Oc1ccc(-c2cccc(C(N)=O)c2)cc1)C(O)CCc1cccnc1 (stereo not drawn)
207 to 208 °C | COc1ccc(Cc2cnc(N)nc2N)cc1OCCNS(=O)(=O)c1ccc(N)cc1
237 to 239 °C | CC(=O)OCC(COC(C)=O)OCn1cnc2c(=O)[nH]c(N)nc21
224 °C | COCC(O)CN1CCN(c2cc3c(cc2F)c(=O)c(C(=O)O)c2n3CCS2)CC1 (stereo not drawn)
127 to 128 °C | CC1(C)[C@H](Cl)CC[C@]2(CI)OC(=O)C[C@H]12
163 to 164 °C | CCOCc1nc2c(N)nc3cc(Br)cnc3c2n1CC(C)C
128 to 129 °C | O=C1CCN(Cc2cccc(C(F)(F)F)c2)CC1C(c1ccccc1)c1ccccc1 (stereo not drawn)
364 to 367 °C | O=C1CC(c2cccc(O)c2)=Nc2ccc(N3CCCC3)cc21
105 to 106 °C | CCCc1nn(-c2ccc(C(F)(F)F)cn2)cc1CCCOc1c(F)cccc1CC(=O)O
148 to 149 °C | Oc1cncc(CCCOc2cccnc2Oc2cccc(Cl)c2)c1
339 to 343 °C | O=S1C(c2cccc(-c3ccc(O)c(C45CC6CC(CC(C6)C4)C5)c3)n2)=CN=C1N1CCOCC1 (stereo not drawn)
213 to 215 °C | CCOC(=O)C1=C(C)NC(=O)N(C(N)=O)C1c1cccc([N+](=O)[O-])c1 (stereo not drawn)
63 to 64 °C | CCCCCCCCCCCCCCCCSCC(CN=[N+]=[N-])NC(=O)OC(C)(C)C (stereo not drawn)
77 to 78 °C | CC(C)(C)NC(=O)c1cc(F)ccc1N
123 to 125 °C | COc1cccc(C2(Cl)C(C)(C)C2(C)C)c1OC
76 to 77 °C | OCc1ccc2c(Br)cccc2c1

melting point | Structure (SMILES)
89 to 91 °C | COCCOCOc1c(C(C)(C)C)cc(-c2nc(Br)no2)cc1C(C)(C)C
147 to 149 °C | C#CCN1CCC[C@H](NCc2ccccc2OC)[C@@H]1c1ccccc1 (relative stereo)
68 to 70 °C | CCCCCCCCNC(=O)/C=C\SC(=O)CC
142 to 145 °C | CN(C)S(=O)(=O)c1ccc2c(c1)C(=O)c1cc(Br)ccc1CC2
89 to 90 °C | CCCCN(CCCC)CCCCCOc1ccc(S(=O)(=O)c2c(CC)cn3ccccc23)cc1
107 to 108 °C | Cn1c(=O)ccc2cc(COc3cccc(C4(C)CCOCC4)c3)ccc21
157 to 159 °C | O=c1[nH]c(COCc2ccccc2)nc2nccnc12
128 °C | Cc1cc(=O)c(-c2ccc(Cl)c(Cl)c2)c(-c2ccc(S(N)(=O)=O)cc2)o1
59 to 61 °C | CC(=O)N1CCc2c([nH]c3ccc(Cl)cc23)C1CCCN1CCN(C)CC1 (stereo not drawn)
182 to 184 °C | COC(=O)c1nc(-c2ccc(Cl)c(OC)c2F)cc(NC(C)=O)c1C
206 to 211 °C | CC(=O)Nc1ccc(CNc2n[nH]c(N=CN(C)C)c2C#N)cc1
71 to 73 °C | CCOC(=O)CN(C(=O)C(F)(F)F)c1ccc(Cl)cc1C#N
215 to 217 °C | COc1ccc2[nH]c(=O)c(-c3nnnn3Cc3cccc(OCc4ccc5ccccc5n4)c3)cc2c1
194 to 196 °C | CS(=O)(=O)c1ccc(-c2cc(-n3ccc(C(F)(F)F)n3)c3ccccc3n2)cc1
167 to 170 °C | CN(C)c1nc(=O)c2cccnc2n1Cc1ccc(F)cc1
133 °C | CSc1ccc(O)cn1
208 °C | CC(C)(C)C1=NN(c2ccc(C(=O)O)cc2)C(c2ccc(Cl)cc2)C1 (stereo not drawn)
198 to 199 °C | COc1cccc(C(=O)O)c1OCc1nc(-c2ccco2)oc1C
102 °C | S=C(NC1CCCc2sccc21)C1CCNCC1 (stereo not drawn)
112 to 115 °C | Cn1c(CN2CCOCC2)nc([N+](=O)[O-])c1C#N
293 to 295 °C | O=C(Nc1ccccc1)N1CCc2[nH]cc3c(=O)n(-c4ccc(Cl)cc4)nc-3c2C1
62 to 63 °C | CCN(Cc1ccc(Cl)nc1)C(=C[N+](=O)[O-])N(C)C(=O)OCOC(=O)c1ccccc1
89 to 91 °C | CCN(C(=O)C(C)Oc1ccc(Oc2ncc(Cl)cc2Cl)cc1)C(CS)C(=O)O (stereo not drawn)

melting point | Structure (SMILES)
185 to 186 °C | Cc1oc(-c2ccccc2)nc1COc1ccc(COc2ccc(O)cc2CC#N)cc1
203 to 204 °C | CC1(C)CCCC(C)(C)N1Cc1ccc2cc(NC(=O)N3CCC(c4ccc(Cl)cc4)CC3)ccc2n1
187 to 189 °C | COCc1c(C(=O)OC(C)C)ncc2[nH]c3cccc(Cc4ccccc4Cl)c3c12
38 to 39 °C | CCOC(=O)CNc1ncccc1[N+](=O)[O-]
132 to 133 °C | CC(C)CCCC(C)C1CCC2C3CCC4CC(=O)CC(C)C4(C)C3CCC12C (stereo not drawn)
225 to 226 °C | CCn1c(=O)c2c(nc(C=Cc3cccc(OC)c3O)n2C)n(CC)c1=O
300 to 302 °C | O=C(O)c1ccc(C#Cc2ccc(OCC(O)CO)c(C34CC5CC(CC(C5)C3)C4)c2)cc1 (stereo not drawn)
155 to 158 °C | COC(=O)[C@H](Cc1ccc(NC(=O)c2c(Cl)cccc2Cl)cc1)NC(=O)c1ccc(-n2nnnc2NCc2cccc(O)c2)cc1Cl
190 to 192 °C | Cc1cn(-c2ccc(N3C[C@H](CO)OC3=O)cc2F)nn1
90 to 93 °C | O=C(O)c1cc(OC(F)(F)F)ccc1[N+](=O)[O-]
59.5 to 61 °C | CC(C)CCS(=O)c1cccc(-c2nc(=O)c3ccccc3s2)n1 (stereo not drawn)
> 275 °C | CN1C(=O)C(C)(C)C(=O)N(C)c2cc(C(=O)O)ccc21
78 to 79 °C | CCS(=O)(=O)c1ccc(I)cc1
> 250 °C | N#Cc1cnc2cc(O)ccc2c1Nc1ccc2cn[nH]c2c1
70 to 80 °C | CN1C(=O)CC[C@]2(C)c3ccc(-c4ccc([N+](=O)[O-])cn4)cc3CC[C@@H]12
232 to 234 °C | NC(=O)c1[nH]c2ccccc2c1-c1ccc(NC(=O)Nc2ccccc2)cc1
215 °C | CN(C)c1cccc(C(=O)Nc2ccc3ccc(Cl)nc3n2)c1
155 to 157 °C | O=C(NCCCCOc1ccc(-c2ccc(=O)[nH]n2)cc1)c1cccnc1
86 to 88 °C | C=CCNc1c(NC(CC)CC)cc(C)nc1Oc1c(C)cc(C)cc1C
98 to 99 °C | CC(=O)N(CCCCN1CCN(c2csc3cc(F)ccc23)CC1)C(=O)C(C)C
155 to 157 °C | CCOC(=O)c1cc(=O)c(O)c(-c2ccccc2)o1
145 °C | CCOC(=O)C=CN1C(C)(C)CC(=O)CC1(C)C

Structure (SMILES) | melting point
O=C1c2c(Cl)cccc2-n2cnc(-c3noc(CCl)n3)c2[C@@H]2CCN12 | 211 to 212 °C
CCOC(=O)c1ncn2c1CN=C(c1ccccn1)c1cc(C#C[Si](C)(C)C)ccc1-2 | 205 to 206 °C
O=C([O-])C12CC[N+](Cc3ccc4c(c3)Nc3nccnc3S4)(CC1)CC2 | 229 to 230 °C
COc1cccc(C2(C#N)CCN(C(=O)CN3CCN(c4cnccn4)CC3)CC2)c1 | 108 °C
CN1C(=O)[C@H](NC(=O)CCc2ccco2)N=C(c2ccccc2)c2ccccc21 | 115 to 118 °C
O=c1n(CCCN2CC=C(c3c[nH]c4ccccc34)CC2)nc2ccccn12 | 173 °C
O=P(ONc1ccccc1)(ONc1ccccc1)Oc1ccccc1 | 176 to 178 °C
